US11285130B2, “Treatment of mitochondrial diseases” (Khondrion IP B.V., priority 2017, dated 2022)
Like-named read-outs stand apart in the source and are kept apart here.

What was measured:
[1] = MAD study pharmacokinetic analysis; type: in vivo, human; conditions: for AUC / Cmax / Tmax: male, human, plasma, oral; for Cmax: read-out: Cmax (Geomean); for Tmax: read-out: tmax* (median)
Experimental: Dose escalation to the next dose level was done after evaluation of the safety and the first 24-hour pharmacokinetic results of the previous dose. […] Anticipated exposures at this starting dose were just below the Minimum Anticipated Biological Effect Level (MABEL). Placebo (an in taste and appearance matching oral liquid) was also administered orally on one occasion in the single-ascending dose part and b.i.d. for 7 Days in the MAD part. […] All samples were stored at <-70° C. until analysis. […] For mean value calculations, all values below the limit of quantification (LOQ) were set to zero. […] The non-compartmental pharmacokinetic analysis was performed using Phoenix, Version 6.3 (Pharsight Corporation, Mountain View, Calif., USA). […] The PK parameters were calculated on the basis of the actual blood sampling time points relative to dosing. Selected pharmacokinetic parameters (Cmax, tmax, t1/2, AUClast and AUC0-int) following single-dose administration and selected pharmacokinetic parameters Cmax, tmax, [NT], the accumulation factor (Racc) and time to reach steady state) following multiple dose administration were determined. In urine, the percentage of dose excreted in urine was determined for the single- and multiple-dose administration.

[2] = male, human, in vivo
Experimental: (§1) The changes from baseline (pre-dose assessment on Day 1) for body weight, physical examinations, vital signs, ECG-variables and clinical laboratory variables were determined for each time point. Treatment-emergent laboratory and ECG abnormalities as well as adverse events were monitored throughout the study, up to 28 Days after the last study drug intake.
(§2) The goal of this post-hoc optimization study was to repeat the ECG assessment with an highly automated computer-assisted approach where in addition to the re-evaluation of standard intervals (PR, QRS and QT intervals), a set of parameters describing repolarization morphology were considered. The morphology indices were the TpTe interval (interval from the T wave apex to the end of the T wave), the TpTe/QT index (the ratio between the TpTe interval and the QT interval), Tamp (the amplitude in microvolt units of the T wave) and TSym (an index of repolarization morphology based on the symmetry of the T wave).
(§3) ECGs were digitally recorded using a Schiller AT104 ECG machine (500 Hz, 1 μV). Cardiac interval measurements were performed on the Global Superimposed Median Beat (GSMB), a methodology that allows measurements that consider each of the 12 individual median beats. This measurement methodology ensures that the PR, QRS, and QT interval are measured from the earliest onset in any lead to the latest deflection in any lead. Cardiologist overview of the computer-based measurements is based on the superimposed (overlapped) display of the individual median beats, to assure measurements are performed at the earliest onset of any viable lead to the latest offset of any viable lead.
The RR interval used for heart-rate correction of the QT interval (QTcB) was based on all the beats in the ten second recording. […]
For the pre-dose (baseline) ECGs, all parameters per time point were calculated as the averages of the triplicate ECGs. […]
The over-reading cardiologist provided a clinical interpretation for each ECG at each time point. […]

[3] = ECG post-hoc analysis, MAD study; type: in vivo, human; parameters: QTcF: largest median baseline increase / QTcF: largest individual increase: unit not given here
Experimental: as §1, §2, §3
The RR interval used for heart-rate correction of the QT interval (QTcB) was based on all the beats in the ten second recording.
Other cardiac parameters were computed from the 12-lead vector magnitude VM (e.g. the square root of the sum of squares at each digital sample) computed from the individual median beats. On the VM lead, the apex of the T wave is placed and used to compute the TpTe interval (using the end of the T wave from the GSMB) and the T wave amplitude (height in microvolt of the VM T peak from the isoelectric line). […] T wave symmetry index was computed using a proprietary approach based on Gaussian Mesa function modeling (GMF) of the repolarization waves (Badilini F et al. J Electrocardiol 2008, 41:588-594). Briefly, the ascending and descending phases of the VM T wave are modeled by two independent half-Gaussian curves (see FIG. 3). The standard deviations of these functions (σ1 and σ2) and indicators of the ascending/descending speed and their ratio is an index of symmetry (TSym=σ1/σ2; TSym=1 for a perfectly symmetric T wave, TSym<1 for slow-ascending/fast-descending T waves, T>1 for fast-ascending/slow-decending T waves).
For the pre-dose (baseline) ECGs, all parameters per time point were calculated as the averages of the triplicate ECGs. Computation of QTcB and QTcF was performed using the RR interval averaged from the total ECG acquisition duration (10 seconds) and in the case of the triplicate ECGs is based on the average QT and average HR of the replicate ECGs.
The over-reading cardiologist provided a clinical interpretation for each ECG at each time point. Each ECG was classified as Normal, Abnormal Clinically Insignificant (ACI), or Abnormal Clinically Significant (ACS). Results of this post-hoc analysis were used for an exposure-response evaluation for the changes in the electrophysiological parameters as a function of the concentration of KH176.

[4] = Pharmacodynamic analysis of oxidized and reduced glutathione, MAD study; type: in vivo, human; conditions: Day 7, blood
Experimental: Blood samples for pharmacodynamic analyses were taken pre-dose and at 3, 6 and 24 h post dosing at Day 7 (MAD). All samples were stored in −80° C. until analysis. Quantification of oxidized and reduced glutathione was performed at York Bioanalytical solutions using a previously described validated method (Moore T et al, J Chromatogr B Analyt Technol Biomed Life Sci 2013, 929:51-55). Change from baseline in the concentrations of oxidized and reduced glutathione (GSH/GSSG) was calculated.

PgP efflux pump = PgP efflux pump (Homo sapiens, UniProt P08183); assay: In vitro efflux; type: in vitro ADME
Sequence of PgP efflux pump (P08183 whole entry): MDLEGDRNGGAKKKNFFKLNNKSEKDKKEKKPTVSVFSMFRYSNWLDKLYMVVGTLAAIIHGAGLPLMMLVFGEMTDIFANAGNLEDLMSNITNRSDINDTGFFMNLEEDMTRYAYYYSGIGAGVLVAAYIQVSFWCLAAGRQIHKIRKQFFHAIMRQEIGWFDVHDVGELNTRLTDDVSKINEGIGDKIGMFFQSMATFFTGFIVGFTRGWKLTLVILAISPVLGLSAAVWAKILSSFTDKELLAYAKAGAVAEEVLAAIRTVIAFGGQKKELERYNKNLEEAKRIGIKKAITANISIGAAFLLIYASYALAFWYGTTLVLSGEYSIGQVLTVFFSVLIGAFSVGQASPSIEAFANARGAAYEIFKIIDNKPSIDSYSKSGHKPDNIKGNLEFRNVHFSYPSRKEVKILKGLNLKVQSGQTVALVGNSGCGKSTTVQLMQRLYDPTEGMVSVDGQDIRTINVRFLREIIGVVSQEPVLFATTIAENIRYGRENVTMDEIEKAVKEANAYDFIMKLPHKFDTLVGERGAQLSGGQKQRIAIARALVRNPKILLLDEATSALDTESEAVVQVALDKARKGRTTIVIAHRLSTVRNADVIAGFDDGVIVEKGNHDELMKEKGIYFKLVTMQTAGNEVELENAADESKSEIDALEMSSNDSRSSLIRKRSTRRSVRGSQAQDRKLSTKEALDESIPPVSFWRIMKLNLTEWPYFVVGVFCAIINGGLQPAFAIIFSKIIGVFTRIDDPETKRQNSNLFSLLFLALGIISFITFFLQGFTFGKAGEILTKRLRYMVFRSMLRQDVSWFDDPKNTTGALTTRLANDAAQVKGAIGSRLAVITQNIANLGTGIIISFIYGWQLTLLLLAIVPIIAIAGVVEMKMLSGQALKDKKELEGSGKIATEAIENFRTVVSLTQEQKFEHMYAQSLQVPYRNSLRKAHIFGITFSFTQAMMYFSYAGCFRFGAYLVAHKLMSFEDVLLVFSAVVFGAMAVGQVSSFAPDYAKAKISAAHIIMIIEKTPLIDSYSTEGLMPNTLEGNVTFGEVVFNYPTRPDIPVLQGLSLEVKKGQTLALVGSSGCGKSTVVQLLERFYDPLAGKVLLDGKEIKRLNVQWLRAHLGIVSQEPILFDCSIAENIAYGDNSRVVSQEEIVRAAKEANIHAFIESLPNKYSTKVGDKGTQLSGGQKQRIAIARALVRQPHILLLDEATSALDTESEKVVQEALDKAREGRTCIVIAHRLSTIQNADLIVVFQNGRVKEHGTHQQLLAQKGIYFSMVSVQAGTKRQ

[5] = 100 mg, MAD, KH176 100 mg b.i.d, Day 1
[6] = 100 mg, MAD, KH176 100 mg b.i.d, Day 7
[7] = 200 mg, MAD, KH176 200 mg b.i.d, Day 1
[8] = 200 mg, MAD, KH176 200 mg b.i.d, Day 7
[9] = 400 mg, MAD, KH176 400 mg b.i.d, Day 1
[10] = 400 mg, MAD, KH176 400 mg b.i.d, Day 7

Cc1c(C)c2c(c(C)c1O)CC[C@@](C)(C(=O)N[C@@H]1CCCNC1)O2.Cl [KH176, (S)-6-hydroxy-2,5,7,8-tetramethyl-N-((R)-piperidin-3-yl)chroman-2-carboxamide hydrochloride]
Racc (accumulation ratio, Geomean) ([1]; MAD, KH176 100 mg b.i.d, Day 7): 2.52 | Racc (accumulation ratio, Geomean) ([1]; MAD, KH176 200 mg b.i.d, Day 7): 2.65 | Racc (accumulation ratio, Geomean) ([1]; MAD, KH176 400 mg b.i.d, Day 7): 2.17 | steady concentrations reached by (first trough measurement) ([1]; MAD, mean trough concentration-time curves): ≤ 4 days | AUC ([1]; 100 mg, MAD, KH176 100 mg b.i.d, Day 1, read-out: AUCtau (Geomean)): 1.09 µg·h/mL | Cmax [1, 5]: 0.184 µg/mL | Tmax [1, 5]: 1.25 h | AUC ([1]; 100 mg, MAD, KH176 100 mg b.i.d, Day 7, read-out: AUCtau (Geomean)): 2.76 µg·h/mL | Cmax [1, 6]: 0.353 µg/mL | Tmax [1, 6]: 1 h | AUC ([1]; 200 mg, MAD, KH176 200 mg b.i.d, Day 1, read-out: AUCtau (Geomean)): 2.25 µg·h/mL | Cmax [1, 7]: 0.313 µg/mL | Tmax [1, 7]: 1.75 h | AUC ([1]; 200 mg, MAD, KH176 200 mg b.i.d, Day 7, read-out: AUCtau (Geomean)): 5.96 µg·h/mL | Cmax [1, 8]: 0.748 µg/mL | Tmax [1, 8]: 2 h | AUC ([1]; 400 mg, MAD, KH176 400 mg b.i.d, Day 1, read-out: AUCtau (Geomean)): 6.89 µg·h/mL | Cmax [1, 9]: 1.33 µg/mL | Tmax [1, 9]: 1 h | AUC ([1]; 400 mg, MAD, KH176 400 mg b.i.d, Day 7, read-out: AUCtau (Geomean)): 14.9 µg·h/mL | Cmax [1, 10]: 2.1 µg/mL | Tmax [1, 10]: 1.5 h | AUC ([1]; steady state, BID, read-out: AUCtau (one dosing interval, 12 hours), range): 2.13 to 3.68 µg·h/mL | average concentrations, range ([1]; steady state, 100 mg BID): 177.5 to 306.6 ng/mL | maximum concentration, range ([1]; steady state, 100 mg BID, healthy subjects): 303 to 458 ng/mL | KH176 exposure with no significant prolongation of the TpTe interval compared to placebo [2]: lower than 500 ng/ml | plasma concentrations at which effects on repolarization seem to start [2]: 0.5 to 1 µg/mL | QTcF, largest median baseline increase ([2]; 1 h): 46.8 ms | effect on QTcF ([3]; MAD 100 mg b.i.d.): no effect | PR interval: largest median baseline increase ([3]; MAD 200 mg): 12 ms | QTcF: largest individual increase ([3]; MAD 200 mg): 28.3 | QTcF: largest median baseline increase ([3]; MAD 200 mg): 13.3 | T-wave symmetry index: largest individual increase ([3]; MAD 200 mg): 0.6 | T-wave symmetry index: largest median baseline increase ([3]; MAD 200 mg): 0.45 | TpTe interval: largest individual increase ([3]; MAD 200 mg): 46 ms | TpTe interval: largest median baseline increase ([3]; MAD 200 mg): 24 ms | QTcF, median maximum change from baseline ([3]; MAD 200 mg b.i.d., Day 5): 13 ms | PR interval: largest median baseline increase ([3]; MAD 400 mg): 19 ms | QRS interval: largest individual increase ([3]; MAD 400 mg): 15.3 ms | QRS interval: largest median baseline increase ([3]; MAD 400 mg): 9.7 ms | QTcF: largest individual increase ([3]; MAD 400 mg): 43.7 | QTcF: largest median baseline increase ([3]; MAD 400 mg): 29.2 | T-wave symmetry index: largest individual increase ([3]; MAD 400 mg): 0.99 | T-wave symmetry index: largest median baseline increase ([3]; MAD 400 mg): 0.63 | TpTe interval: largest individual increase ([3]; MAD 400 mg): 62.7 ms | TpTe interval: largest median baseline increase ([3]; MAD 400 mg): 42.3 ms | QTcF, median maximum change from baseline at trough ([3]; MAD 400 mg b.i.d., Day 6): 29 ms | GSH/GSSG ratio, change from baseline [4]: No significant alterations | efflux / excretion (PgP efflux pump): excreted by the PgP efflux pump
